Earlier results as cited in article PMC5425492 (Clinical Pharmacokinetics, 2016).

| Substance | Within-subject variability in glucose-lowering effect [%] |
| --- | --- |
| insulin detemir | 27 |
| insulin degludec | 20 |
